Measured values published in PubChem BioAssay AID328 (DTP/NCI, 2004).
“And” between values parts separate entries of the source, which are not always exact repeats. Identical values can stand only once. Toxic doses and inconclusive results are not listed.

Tested on: BDF1 mice, P388 leukemia ip, median survival T/C
Assay: NCI In Vivo Anticancer Drug Screen. Data for tumor model P388 Leukemia (intraperitoneal) in B6D2F1 (BDF1) mice
Conditions: endpoint: median survival time, higher = longer survival
Summary of the method: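 Reported as T/C, where T is the survival measurement in dosed animals and C the same measurement in vehicle controls.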

[1] = dose: 12.5 mg/kg/injection, schedule: Q01DX009 (ip), vehicle: saline with Tween-80
[2] = dose: 25.0 mg/kg/injection, schedule: Q01DX009 (ip), vehicle: saline with Tween-80
[3] = dose: 50.0 mg/kg/injection, schedule: Q01DX009 (ip), vehicle: saline with Tween-80
[4] = dose: 100.0 mg/kg/injection, schedule: Q01DX009 (ip), vehicle: saline with Tween-80
[5] = dose: 50.0 mg/kg/injection, schedule: Q01DX009 (ip), vehicle: Klucel (hydroxypropylcellulose) (HPC)
[6] = dose: 100.0 mg/kg/injection, schedule: Q01DX009 (ip), vehicle: Klucel (hydroxypropylcellulose) (HPC)
[7] = dose: 100.0 mg/kg/injection, schedule: Q04DX003 (ip), vehicle: Klucel (hydroxypropylcellulose) (HPC)
[8] = dose: 200.0 mg/kg/injection, schedule: Q01DX009 (ip), vehicle: Klucel (hydroxypropylcellulose) (HPC)
[9] = dose: 200.0 mg/kg/injection, schedule: Q04DX003 (ip), vehicle: Klucel (hydroxypropylcellulose) (HPC)
[10] = dose: 400.0 mg/kg/injection, schedule: Q04DX003 (ip), vehicle: Klucel (hydroxypropylcellulose) (HPC)
[11] = dose: 50.0 mg/kg/injection, schedule: Q04DX003 (ip), vehicle: saline
[12] = dose: 100.0 mg/kg/injection, schedule: Q04DX003 (ip), vehicle: saline with Tween-80
[13] = dose: 200.0 mg/kg/injection, schedule: Q04DX003 (ip), vehicle: saline with Tween-80
[14] = dose: 25.0 mg/kg/injection, schedule: Q04DX003 (ip), vehicle: Klucel (hydroxypropylcellulose) (HPC)
[15] = dose: 50.0 mg/kg/injection, schedule: Q04DX003 (ip), vehicle: Klucel (hydroxypropylcellulose) (HPC)
[16] = dose: 400.0 mg/kg/injection, schedule: Q04DX003 (ip), vehicle: saline with Tween-80
[17] = dose: 25.0 mg/kg/injection, schedule: Q01DX009 (ip), vehicle: Klucel (hydroxypropylcellulose) (HPC)
[18] = dose: 100.0 mg/kg/injection, schedule: Q04DX003 (ip), vehicle: saline
[19] = dose: 200.0 mg/kg/injection, schedule: Q04DX003 (ip), vehicle: saline
[20] = dose: 400.0 mg/kg/injection, schedule: Q04DX003 (ip), vehicle: saline
[21] = dose: 200.0 mg/kg/injection, schedule: Q01DX009 (ip), vehicle: saline with Tween-80

In the case of `CC12CCC3c4ccc(OP(=O)(N5CC5)N5CC5)cc4CCC3C1CCC2O` (configuration not stated), the T/C [1] is reported as 102 % of control, the T/C [2] is reported as 93 % of control and the T/C [3] is reported as 121 % of control. The T/C [4] was 121 % of control.

With `COC(=O)C1(Br)CCC1(Br)C(=O)OC` (configuration not stated) the T/C [5] was 100 % of control, the T/C (dose: 100.0 mg/kg/injection, schedule: Q01DX001 (ip), vehicle: other) was 100 % of control and the T/C [6] was 109 % of control. The T/C [7] was 109 % of control, the T/C (dose: 200.0 mg/kg/injection, schedule: Q01DX001 (ip), vehicle: other) was 95 % of control and the T/C [8] was 113 % of control. The T/C [9] was 109 % of control, the T/C (dose: 400.0 mg/kg/injection, schedule: Q01DX001 (ip), vehicle: other) was 112 % of control and the T/C [10] was 113 % of control.

In the case of `CCN(CC)P(=O)(N1CC1C)N1CC1C` (configuration not stated), the T/C (dose: 4.4 mg/kg/injection, schedule: Q01DX009 (ip), vehicle: saline) is reported as 109 % of control, the T/C (dose: 6.6 mg/kg/injection, schedule: Q01DX009 (ip), vehicle: saline) is reported as 109 % of control and the T/C (dose: 10.0 mg/kg/injection, schedule: Q01DX009 (ip), vehicle: saline) is reported as 104 % of control. For the same molecule, the T/C (dose: 12.5 mg/kg/injection, schedule: Q04DX003 (ip), vehicle: saline) was 116 % of control, the T/C (dose: 13.2 mg/kg/injection, schedule: Q01DX009 (ip), vehicle: saline) was 118 % of control and the T/C (dose: 15.0 mg/kg/injection, schedule: Q01DX009 (ip), vehicle: saline) was 113 % of control. The T/C (dose: 20.0 mg/kg/injection, schedule: Q01DX009 (ip), vehicle: saline) was 157 % of control and 180 % of control, the T/C (dose: 25.0 mg/kg/injection, schedule: Q04DX003 (ip), vehicle: saline) was 100 % of control and the T/C (dose: 30.0 mg/kg/injection, schedule: Q01DX009 (ip), vehicle: saline) was 150 % of control. For the same molecule, the T/C (dose: 33.0 mg/kg/injection, schedule: Q04DX003 (ip), vehicle: saline) was 121 % of control, the T/C (dose: 45.0 mg/kg/injection, schedule: Q01DX009 (ip), vehicle: saline) was 90 % of control and the T/C [11] was 113 % of control. For the same molecule, the T/C (dose: 75.0 mg/kg/injection, schedule: Q04DX003 (ip), vehicle: saline) was 169 % of control.

In the case of `CC(=O)C1C(=O)C(=O)OC1C` (configuration not stated), the T/C [5] is reported as 109 % of control, the T/C [6] is reported as 95 % of control and the T/C [12] is reported as 113 % of control. The T/C [8] was 90 % of control and the T/C [13] was 104 % of control.

With `O=C(N/N=C/c1ccc2c(c1)CCC2)c1ccccc1` the T/C [14] was 100 % of control, the T/C [15] was 96 % of control and the T/C [7] was 94 % of control. The T/C [9] was 100 % of control.

In the case of `O=Cc1[nH]c(=S)[nH]c(=O)c1Cc1ccc([N+](=O)[O-])cc1`, the T/C [12] is reported as 100 % of control, the T/C [13] is reported as 95 % of control and the T/C [16] is reported as 112 % of control.

In the case of `Cc1cccc(CCl)c1`, the T/C (dose: 100.0 mg/kg/injection, schedule: Q04DX003 (ip), vehicle: saline sonified) is reported as 104 % of control, the T/C (dose: 200.0 mg/kg/injection, schedule: Q04DX003 (ip), vehicle: saline sonified) is reported as 109 % of control and the T/C (dose: 400.0 mg/kg/injection, schedule: Q04DX003 (ip), vehicle: saline sonified) is reported as 100 % of control.

With `CCC(C)C(NC(=O)C(Cc1ccc(O)cc1)NC(=O)C(N)C(C)C)C(=O)NC(Cc1cnc[nH]1)C(=O)N1CCCC1C(=O)NC(Cc1ccccc1)C(=O)OC` (configuration not stated) the T/C (dose: 50.0 mg/kg/injection, schedule: Q01DX005 (ip), vehicle: saline with Tween-80) was 101 % of control, the T/C (dose: 100.0 mg/kg/injection, schedule: Q01DX005 (ip), vehicle: saline with Tween-80) was 90 % of control and the T/C (dose: 200.0 mg/kg/injection, schedule: Q01DX005 (ip), vehicle: saline with Tween-80) was 90 % of control.

In the case of `[Cl][Pt+2][Cl].[NH-]C1CCC1.[NH-]C1CCC1`, the T/C (dose: 12.5 mg/kg/injection, schedule: Q01DX009 (ip), vehicle: Klucel (hydroxypropylcellulose) (HPC)) is reported as 173 % of control and 201 % of control, the T/C [17] is reported as 195 % of control and 213 % of control and the T/C [5] is reported as 94 % of control and 115 % of control.

For `C(=C\c1ccc2ccccc2n1)/c1ccc2c(c1)OCO2`, the T/C [12] was 100 % of control, the T/C [13] was 100 % of control and the T/C [16] was 88 % of control.

In the case of `c1ccc(-c2c[n+]3cc4ccccc4cc3cn2)cc1`, the T/C (dose: 100.0 mg/kg/injection, schedule: Q01DX009 (ip), vehicle: saline) is reported as 95 % of control, the T/C [18] is reported as 100 % of control and the T/C (dose: 200.0 mg/kg/injection, schedule: Q01DX009 (ip), vehicle: saline) is reported as 91 % of control. The T/C [19] was 113 % of control, the T/C (dose: 400.0 mg/kg/injection, schedule: Q01DX009 (ip), vehicle: saline) was 91 % of control and the T/C [20] was 95 % of control.

In the case of `COc1ccc2c(OC)c3ccoc3nc2c1OC`, the T/C (dose: 1.57 mg/kg/injection, schedule: Q01DX009 (ip), vehicle: Klucel (hydroxypropylcellulose) (HPC)) is reported as 89 % of control, the T/C (dose: 3.13 mg/kg/injection, schedule: Q01DX009 (ip), vehicle: Klucel (hydroxypropylcellulose) (HPC)) is reported as 89 % of control and the T/C (dose: 6.25 mg/kg/injection, schedule: Q01DX009 (ip), vehicle: Klucel (hydroxypropylcellulose) (HPC)) is reported as 101 % of control.

With `Cc1cc(C)nc(NC(N)=NCCc2ccccc2)n1` the T/C [1] was 100 % of control, the T/C [2] was 95 % of control and the T/C [3] was 100 % of control.

With `Cc1ccc(S(=O)(=O)NC(=O)NNC(=O)C(F)(F)F)cc1` the T/C [3] was 114 % of control, the T/C [4] was 96 % of control and the T/C [21] was 109 % of control.

`COc1ccc(-c2noc(=O)c3ccccc23)cc1` was tested, and the T/C [3] was 102 % of control, the T/C [4] was 100 % of control and the T/C [21] was 114 % of control.

For `COc1cc(O)c2c(c1)OC(c1ccc(OC)c(O)c1)CC2=O` (configuration not stated), the T/C (dose: 12.5 mg/kg/injection, schedule: Q01DX009 (ip), vehicle: alcohol) was 117 % of control, the T/C (dose: 50.0 mg/kg/injection, schedule: Q01DX009 (ip), vehicle: alcohol) was 109 % of control and the T/C (dose: 100.0 mg/kg/injection, schedule: Q01DX009 (ip), vehicle: alcohol) was 92 % of control.

With `CC1CSCC(C)O1` (configuration not stated) the T/C [3] was 90 % of control, the T/C [4] was 100 % of control and the T/C [18] was 100 % of control. The T/C [21] was 104 % of control, the T/C [19] was 100 % of control and the T/C [20] was 104 % of control.

In the case of `IC12CC3CC(CC(C3)C1)C2`, the T/C [12] is reported as 90 % of control, the T/C [13] is reported as 90 % of control and the T/C [16] is reported as 86 % of control.

With `CC1(C(N)=O)CCCC2(C)c3ccccc3CCC12` (configuration not stated) the T/C [12] was 100 % of control, the T/C [13] was 104 % of control and the T/C [16] was 100 % of control.

With `COc1cc2ccc3c(c2cc1OC)CNCC3` the T/C [11] was 104 % of control, the T/C [18] was 109 % of control and the T/C [19] was 109 % of control.

In the case of `CCSC(C(OC(C)=O)C(OC(C)=O)C(OC(C)=O)C(COC(C)=O)OC(C)=O)n1cnc2c(=S)nc[nH]c21` (configuration not stated), the T/C (dose: 12.5 mg/kg/injection, schedule: Q01DX005 (ip), vehicle: saline with Tween-80) is reported as 98 % of control and the T/C (dose: 25.0 mg/kg/injection, schedule: Q01DX005 (ip), vehicle: saline with Tween-80) is reported as 95 % of control.

With `COc1c(C)c(OCC=C(C)C)cc(CO)c1CO` the T/C [5] was 109 % of control, the T/C [6] was 109 % of control and the T/C [8] was 100 % of control.

`CC(C)OC(CCCl)c1ccccc1` (configuration not stated) was tested, and the T/C (dose: 75.0 mg/kg/injection, schedule: Q01DX009 (ip), vehicle: Klucel (hydroxypropylcellulose) (HPC)) was 95 % of control, the T/C [7] was 100 % of control and the T/C (dose: 150.0 mg/kg/injection, schedule: Q01DX009 (ip), vehicle: Klucel (hydroxypropylcellulose) (HPC)) was 109 % of control. For the same molecule, the T/C [9] was 96 % of control, the T/C (dose: 300.0 mg/kg/injection, schedule: Q01DX009 (ip), vehicle: Klucel (hydroxypropylcellulose) (HPC)) was 109 % of control and the T/C [10] was 100 % of control.

`CC1CCCC(c2ccccc2)C1` (configuration not stated) was tested, and the T/C (dose: 50.0 mg/kg/injection, schedule: Q01DX001 (ip), vehicle: saline with Tween-80) was 109 % of control, the T/C (dose: 100.0 mg/kg/injection, schedule: Q01DX001 (ip), vehicle: saline with Tween-80) was 109 % of control and the T/C (dose: 200.0 mg/kg/injection, schedule: Q01DX001 (ip), vehicle: saline with Tween-80) was 109 % of control.

`CCCCNC(C)(C)C(SSSC(c1ccc(C(F)(F)F)cc1)C(C)(C)NCCCC)c1ccc(C(F)(F)F)cc1` (configuration not stated) was tested, and the T/C [18] was 120 % of control and the T/C [20] was 120 % of control.

`COS(=O)(=O)Oc1ccc2ccccc2c1` was tested, and the T/C [17] was 98 % of control, the T/C [5] was 100 % of control and the T/C [6] was 108 % of control.

`O=[N+]([O-])c1ccc2nccc(Cl)c2c1` was tested, and the T/C [14] was 100 % of control and the T/C [15] was 95 % of control.
